# Measurements as given in patent US8192753B2, “pH-sensitive cationic lipids, and liposomes and nanocapsules containing the same” (Marina Biotech, Inc., priority 2002, dated 2012).
# Assay: Determination of pKa values by titration in 0.5% TRITON-X 100
# Conditions: lipid in 0.5% TRITON-X 100 in water, titrated with 20 mM NaOH from pH 3.0
substance,measurement,value
4-(2-aminoethyl)morpholine-di-palmitoylglycerol succinate [#60],pKa,7.2
